The target in data set [1] is T1, CDK9/CycT1 (Homo sapiens, UniProt P50750).
T1 construct: Recombinant full-length His-tagged human CDK9 and CycT1; His; purchased Invitrogen PV4131; host or cells: insect cells
Put plainly: CDK9/CycT1 kinase assay (TR-FRET, 10 μM ATP). The data set is classed as biochemical. Particulars: Method 1a. The source says:
1a. CDK9/CyeT1 Kinase Assay:
CDK9/CycT1-inhibitory activity of compounds of the present invention was quantified employing the CDK9/CycT1 TR-FRET assay as described in the following paragraphs:
Recombinant full-length His-tagged human CDK9 and CycT1, expressed in insect cells and purified by Ni-NTA affinity chromatography, were purchased from Invitrogen (Cat. No PV4131). As substrate for the kinase reaction biotinylated peptide biotin-Ttds-[…] (C-terminus in amid form) was used which can be purchased e.g. form the company JERINI Peptide Technologies (Berlin, Germany). For the assay 50 nl of a 100 fold concentrated solution of the test compound in DMSO was pipetted into a black low volume 384 well microtiter plate (Greiner Bio-One, Frickenhausen, Germany), 2 μl of a solution of CDK9/CycT1 in aqueous assay buffer [50 mM Tris/HCl pH 8.0, 10 mM MgCl2, 1.0 mM dithiothreitol, 0.1 mM sodium ortho-vanadate, 0.01% (v/v) Nonidet-P40 (Sigma)] were added and the mixture was incubated for 15 min at 22° C. to allow pre-binding of the test compounds to the enzyme before the start of the kinase reaction.
The resulting mixture was incubated 1 h at 22° C. to allow the formation of complex between the phosphorylated biotinylated peptide and the detection reagents. Subsequently the amount of phosphorylated substrate was evaluated by measurement of the resonance energy transfer from the Eu-chelate to the streptavidine-XL.
On the technique in general: TR-FRET usually uses a lanthanide donor and a delayed reading to cut background.

The test system of data set [2] is A2780, human ovarian carcinoma cells. In words: Proliferation assay, A2780 (crystal violet). Particulars: A2780, 4 days, read-out: Inhibition of A2780 cell proliferation IC50. In kind it is cell-based. As to the method: (§1) Cultivated tumour cells (HeLa, human cervical tumour cells, ATCC CCL-2; NCI-H460, human non-small cell lung carcinoma cells, ATCC HTB-177; A2780, human ovarian carcinoma cells, ECACC #93112519; DU 145, hormone-independent human prostate carcinoma cells, ATCC HTB-81; HeLa-MaTu-ADR, multidrug-resistant human cervical carcinoma cells, EPO-GmbH Berlin; Caco-2, human colorectal carcinoma cells, ATCC HTB-37; B16F10, mouse melanoma cells, ATCC CRL-6475) were plated at a density of 5,000 cells/well (DU145, HeLa-MaTu-ADR), 3,000 cells/well (NCI-H460, HeLa), 2,500 cells/well (A2780), 1,500 cells/well (Caco-2), or 1,000 cells/well (B16F10) in a 96-well multititer plate in 200 μL of their respective growth medium supplemented 10% fetal calf serum. After 24 hours, the cells of one plate (zero-point plate) were stained with crystal violet (see below), while the medium of the other plates was replaced by fresh culture medium (200 μl), to which the test substances were added in various concentrations (0 μM, as well as in the range of 0.001-10 μM; the final concentration of the solvent dimethyl sulfoxide was 0.5%). The cells were incubated for 4 days in the presence of test substances. Cell proliferation was determined by staining the cells with crystal violet: the cells were fixed by adding 20 μl/measuring point of an 11% glutaric aldehyde solution for 15 minutes at room temperature. After three washing cycles of the fixed cells with water, the plates were dried at room temperature. The cells were stained by adding 100 μl/measuring point of a 0.1% crystal violet solution (pH 3.0). After three washing cycles of the stained cells with water, the plates were dried at room temperature. The dye was dissolved by adding 100 μl/measuring point of a 10% acetic acid solution. The extinction was determined by photometry at a wavelength of 595 nm. The change of cell number, in percent, was calculated by normalization of the measured values to the extinction values of the zero-point plate (=0%) and the extinction of the untreated (0 μm) cells (=100%). The IC50 values (inhibitory concentration at 50% of maximal effect) were determined by means of a 4 parameter fit. Non-adherent MOLM-13 human acute myeloid leukemia cells (DSMZ ACC 554) were seeded at a density of 5,000 cells/well in a 96-well multititer plate in 100 μL of growth medium supplemented 10% fetal calf serum. After 24 hours, cell viability of one plate (zero-point plate) was determined with the Cell Titre-Glo Luminescent Cell Viability Assay (Promega), while 50 μL of test compound containing medium was added to the wells of the other plates (final concentrations in the range of 0.001-10 μM and DMSO controls; the final concentration of the solvent dimethyl sulfoxide was 0.5%). Cell viability was assessed after 72-hour exposure with the Cell Titre-Glo Luminescent Cell Viability Assay (Promega).

Data set [3] relates to Caco-2, human colorectal carcinoma cells. In words: Proliferation assay, Caco-2 (crystal violet). In kind it is cell-based. The following applies: Caco-2, 4 days, read-out: Inhibition of Caco-2 cell proliferation IC50. As to the method: as §1
Data set [4] concerns HeLa-MaTu-ADR, multidrug-resistant human cervical carcinoma cells. Put plainly: Proliferation assay, HeLa-MaTu-ADR (crystal violet). The following applies: 4 days, read-out: Inhibition of HeLa-MaTu-ADR cell proliferation IC50. In kind it is cell-based. How it is done:
as §1

The subject of data set [5] is MOLM-13 human acute myeloid leukemia cells. In words: Proliferation assay, MOLM-13 (Cell Titre-Glo). The data set is classed as cell-based. Particulars: MOLM-13, 72-hour exposure, read-out: Inhibition of MOLM-13 cell proliferation IC50. As to the method: as §1
Data set [6] relates to HeLa, human cervical tumour cells. In words: Proliferation assay, HeLa (crystal violet). Particulars: 4 days, read-out: Inhibition of HeLa cell proliferation IC50. In kind it is cell-based. As to the method:
as §1

The nature of data set [7]: Equilibrium shake flask solubility assay, thermodynamic solubility in citrate buffer pH 4. The data set is classed as physicochemical. Particulars: citrate buffer, pH 4, aqueous buffer, thermodynamic from solid, citrate buffer pH 4, 24 h, room temperature; read-out: Solubility in aqueous Citrate buffer pH4. How it is done:
4b) Thermodynamic Solubility in Citrate Buffer pH 4
Thermodynamic solubility was determined by an equilibrium shake flask method [Literature: Edward H. Kerns and Li Di (2008) Solubility Methods in: Drug-like Properties: Concepts, Structure Design and Methods, p276-286. Burlington, Mass.: Academic Press].
A saturated solution of the drug was prepared and the solution was mixed for 24 h to ensure that equilibrium has been reached. The solution was centrifuged to remove the insoluble fraction and the concentration of the compound in solution was determined using a standard calibration curve.
To prepare the sample, 1.5 mg solid compound was weighed in a 4 ml glass vial. 1 ml Citrate buffer pH 4 was added. The suspension was put on a stirrer and mixed for 24 hrs at room temperature. The solution was centrifuged afterwards. To prepare the sample for the standard calibration, 0.6 mg solid sample was dissolved in 19 ml acetonitrile/water 1:1. After sonification the solution was filled up with acetonitrile/water 1:1 to 20 ml.
Sample and standards were quantified by HPLC with UV-detection. For each sample two injection volumes (5 and 50 μl) in triplicates were made. Three injection volumes (5 μl, 10 μl and 20 μl) were made for the standard.
The areas of sample- and standard injections as well as the calculation of the solubility value (in mg/l) were determined by using HPLC software (Waters Empower 2 FR).

≈ marks a conversion by molar mass, not a printed value. Read-outs that look alike come from different tables or passages of the source.

As a reminder, the solubility is the dissolved amount per volume that the medium holds.

T1 sequence (P50750 whole entry): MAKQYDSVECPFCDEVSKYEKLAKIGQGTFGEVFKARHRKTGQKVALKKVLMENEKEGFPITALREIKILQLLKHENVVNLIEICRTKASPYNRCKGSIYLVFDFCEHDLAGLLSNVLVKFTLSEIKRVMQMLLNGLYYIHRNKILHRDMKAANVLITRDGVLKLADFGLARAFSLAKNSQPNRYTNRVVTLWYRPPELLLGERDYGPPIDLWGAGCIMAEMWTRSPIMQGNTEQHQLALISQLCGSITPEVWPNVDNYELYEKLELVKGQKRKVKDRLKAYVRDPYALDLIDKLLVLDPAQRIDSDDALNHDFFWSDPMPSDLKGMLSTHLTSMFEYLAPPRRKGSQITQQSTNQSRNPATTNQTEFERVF
T1 sequence (O60563 whole entry partner): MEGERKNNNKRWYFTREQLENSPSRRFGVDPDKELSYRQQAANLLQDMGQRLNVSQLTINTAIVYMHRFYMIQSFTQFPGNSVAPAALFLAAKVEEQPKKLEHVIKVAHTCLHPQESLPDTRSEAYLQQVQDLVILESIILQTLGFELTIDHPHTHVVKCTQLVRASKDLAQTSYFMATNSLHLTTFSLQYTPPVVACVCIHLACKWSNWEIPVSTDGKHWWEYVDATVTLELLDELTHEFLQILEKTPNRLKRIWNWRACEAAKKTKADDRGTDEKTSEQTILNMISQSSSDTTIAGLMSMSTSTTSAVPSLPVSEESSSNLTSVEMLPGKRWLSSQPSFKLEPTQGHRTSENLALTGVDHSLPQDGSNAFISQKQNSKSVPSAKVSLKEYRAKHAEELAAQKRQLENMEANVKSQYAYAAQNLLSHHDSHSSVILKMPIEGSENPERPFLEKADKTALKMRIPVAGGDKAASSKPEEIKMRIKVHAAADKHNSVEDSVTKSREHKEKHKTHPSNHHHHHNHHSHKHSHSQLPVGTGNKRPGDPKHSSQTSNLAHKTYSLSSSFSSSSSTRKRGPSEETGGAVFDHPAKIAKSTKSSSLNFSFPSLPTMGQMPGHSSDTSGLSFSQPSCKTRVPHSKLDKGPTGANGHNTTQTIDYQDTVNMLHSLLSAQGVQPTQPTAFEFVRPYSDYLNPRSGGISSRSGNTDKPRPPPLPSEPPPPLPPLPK

Take `CCOc1cc(F)ccc1-c1cc(Nc2cc(CS(C)(=N)=O)cc(F)n2)ncc1F` (racemic) [Example 26, (rac)-4-(2-Ethoxy-4-fluorophenyl)-5-fluoro-N-{6-fluoro-4-[(S-methylsulfonimidoyl)methyl]pyridin-2-yl}pyridin-2-amine]: the IC50 in data set [1] is 3 nM; in data set [2] (Homo sapiens, A2780, 96 h) it was 36 nM; in data set [3] (Homo sapiens, Caco-2, 96 h), 86 nM; in data set [4] (Homo sapiens, 96 h) it was 49 nM; in data set [5] (Homo sapiens, MOLM-13, 72 h), 44 nM; in data set [6] (Homo sapiens, 96 h), 43 nM.

For `COc1cc(F)ccc1-c1cc(Nc2cc(CS(C)(=N)=O)cc(C)n2)ncc1F` (single isomer, unassigned; (-)) [Example 33, (−)-5-Fluoro-4-(4-fluoro-2-methoxyphenyl)-N-{6-methyl-4-[(S-methylsulfonimidoyl)methyl]pyridin-2-yl}pyridin-2-amine], the IC50 in data set [3] stood at 30 nM; in data set [4], 27 nM; in data set [5], 23 nM; in data set [6], 19 nM.

With `COc1cc(F)ccc1-c1cc(Nc2cc(CS(C)(=N)=O)cc(C)n2)ncc1F` (single isomer, unassigned; (+)) [Example 32, (+)-5-Fluoro-4-(4-fluoro-2-methoxyphenyl)-N-{6-methyl-4-[(S-methylsulfonimidoyl)methyl]pyridin-2-yl}pyridin-2-amine], the IC50 in data set [2] (Homo sapiens, A2780, 96 h) amounted to 10 nM; in data set [3] (Homo sapiens, Caco-2, 96 h), 40 nM; in data set [4] (Homo sapiens, 96 h), 53 nM; in data set [5] (Homo sapiens, MOLM-13, 72 h) it was 17 nM; in data set [6] (Homo sapiens, 96 h), 31 nM.

Regarding `COc1cc(F)ccc1-c1cc(Nc2cc(CS(C)(=O)=NC(C)=O)ccn2)ncc1F` (racemic) [Example 13, (rac)-N-{[(2-{[5-Fluoro-4-(4-fluoro-2-methoxyphenyl)pyridin-2-yl]amino}pyridin-4-yl)methyl](methyl)oxido-λ^6-sulfanylidene}acetamide], the IC50 turned out to be 1 nM in data set [1]; 23 nM in data set [2] (Homo sapiens, A2780, 96 h); 120 nM in data set [3] (Homo sapiens, Caco-2, 96 h); 110 nM in data set [4] (Homo sapiens, 96 h); 29 nM in data set [5] (Homo sapiens, MOLM-13, 72 h); 100 nM in data set [6] (Homo sapiens, 96 h).

For the compound `COc1cc(CS(C)(=N)=O)cc(Nc2cc(-c3ccc(F)cc3OC)c(F)cn2)n1` (racemic) [Example 6, (rac)-5-Fluoro-4-(4-fluoro-2-methoxyphenyl)-N-{6-methoxy-4-[(S-methylsulfonimidoyl)methyl]pyridin-2-yl}pyridin-2-amine], the IC50 was determined as 2 nM in data set [1]; 11 nM in data set [2] (Homo sapiens, A2780, 96 h); 31 nM in data set [3] (Homo sapiens, Caco-2, 96 h); 30 nM in data set [4] (Homo sapiens, 96 h); 11 nM in data set [5] (Homo sapiens, MOLM-13, 72 h); 21 nM in data set [6] (Homo sapiens, 96 h).

For `COc1cc(F)ccc1-c1cc(Nc2cc(CS(C)(=N)=O)ccn2)ncc1F` (single isomer, unassigned; (-)) [Example 3, (−)-5-Fluoro-4-(4-fluoro-2-methoxyphenyl)-N-{4-[(S-methylsulfonimidoyl)methyl]pyridin-2-yl}pyridin-2-amine], the IC50 in data set [2] came out at 52 nM; in data set [3], 58 nM; in data set [4], 37 nM; in data set [5], 40 nM; in data set [6] it was 100 nM. The solubility at 24 h in data set [7] is 699 µg/mL (≈ 1730 µM).

For the compound `COc1cc(F)ccc1-c1cc(Nc2cc(CS(C)(=N)=O)ccn2)ncc1F.Cl` (single isomer, unassigned; enantiomer 2) [Example 14, 5-Fluoro-4-(4-fluoro-2-methoxyphenyl)-N-{4-[(S-methylsulfonimidoyl)methyl]pyridin-2-yl}pyridin-2-amine hydrochloride; enantiomer 2], the IC50 in data set [3] is 37 nM; in data set [4], 46 nM; in data set [6], 42 nM. Further, the solubility at 24 h in data set [7] was 600 µg/mL.

As for `COc1cc(F)ccc1-c1cc(Nc2cc(CS(C)(=N)=O)cc(C(F)(F)F)n2)ncc1F` (racemic) [Example 21, (rac)-5-Fluoro-4-(4-fluoro-2-methoxyphenyl)-N-{4-[(S-methylsulfonimidoyl)methyl]-6-(trifluoromethyl)pyridin-2-yl}pyridin-2-amine], the IC50 in data set [1] stood at 2 nM; in data set [2] (Homo sapiens, A2780, 96 h) it was 17 nM; in data set [3] (Homo sapiens, Caco-2, 96 h) it was 32 nM; in data set [4] (Homo sapiens, 96 h), 30 nM; in data set [5] (Homo sapiens, MOLM-13, 72 h), 17 nM; in data set [6] (Homo sapiens, 96 h), 29 nM.

As to `COc1cc(F)ccc1-c1cc(Nc2cc(CS(C)(=N)=O)cc(Cl)n2)ncc1F` (racemic) [Example 7, (rac)-N-{6-Chloro-4-[(S-methylsulfonimidoyl)methyl]pyridin-2-yl}-5-fluoro-4-(4-fluoro-2-methoxyphenyl)pyridin-2-amine], the IC50 is 2 nM in data set [1]; 27 nM in data set [2] (Homo sapiens, A2780, 96 h); 41 nM in data set [3] (Homo sapiens, Caco-2, 96 h); 32 nM in data set [4] (Homo sapiens, 96 h); 28 nM in data set [5] (Homo sapiens, MOLM-13, 72 h); 32 nM in data set [6] (Homo sapiens, 96 h).

As to `COc1cc(F)ccc1-c1cc(Nc2cc(CS(C)(=N)=O)ccn2)ncc1F` (single isomer, unassigned; (+)) [Example 2, (+)-5-Fluoro-4-(4-fluoro-2-methoxyphenyl)-N-{4-[(S-methylsulfonimidoyl)methyl]pyridin-2-yl}pyridin-2-amine], the IC50 in data set [2] is 110 nM; in data set [3] it was 62 nM; in data set [4], 33 nM; in data set [5] (Homo sapiens, MOLM-13, 72 h), 29 nM; in data set [6], 110 nM.
